Test results from US20230293540A1, “ANTICOAGULANT COMPOUNDS, METHODS AND DEVICES FOR OPHTHALMIC USE” (Elixir Medical Corporation, priority 2020, published 2023).

Legend:
[1] = Drug concentration in PEG 300 supernatant and precipitation in phosphate buffered saline (HPLC); type: physicochemical; settings: after 24 hours in DPBS
Description: The vial was sonicated with 40° C. heat for 30 minutes and then was placed in the 40° C. oven overnight for 20 hours. […] The crystal fine particles were verified by following. 100 µL of the clear PEG 300 solution was added to a vial with 4.3 mL of Dulbecco’s phosphate buffered saline to mimic the ophthalmic vitreous humor. […] The solution stands overnight for 24 hours at room temperature. […] The solution was then centrifuged, and the supernatant was analyzed by HPLC. […] The solution was sonicated 10 minutes until clear. […] The crystal fine particles were verified by following. […] The vial was sonicated with 40° C. heat for 30 minutes and then was placed in the 40° C. oven overnight for 20 hours.

[2] = system: Calcium-reconstituted sheep blood; assay: Activated clotting time (ACT) in calcium-reconstituted sheep blood; type: biochemical; settings: individual drug at 0.6 ng/mg
Description: The activated clotting time (ACT) evaluation of anticoagulants was performed in Calcium-reconstituted sheep blood and recorded employing the Hemochron® Response device. […] A target amount of drug solution was then added into the test tube. […] The tube was gently shaken before being inserted into the Hemochron Response detector. The ACT read out was recorded and reported. The ACT of the control blood in the absence of any drug as first determined to establish a baseline. Then ACT was determined in the presence of different concentrations of the drug as a single component. Selected drug combinations, were then tested to evaluate for potential synergy in action between the two drugs.

porcine coronary artery = assay: Histopathology scores and QCA of anticoagulant eluting stents in porcine coronary artery model (Examples 2, 3); type: in vivo
Description: The mean score was calculated and reported. […] The smaller the fibrin score, the better efficacy.

[3] = In vivo drug released from / remaining on stent (HPLC); parameters: species or system porcine
Source text: The stented artery was cut longitudinally with surgical scissors. The stents were separated from the tissue.

[4] = Example 3 stent, within 28 days

Molecule: COc1ccc(-n2nc(C(N)=O)c3c2C(=O)N(c2ccc(N4CCCCC4=O)cc2)CC3)cc1 [Apixaban]
- Fraction precipitated out to crystalline form [1]: 33%
- ACT [2]: 522

Molecule: CC1CNc2c(cccc2S(=O)(=O)N[C@@H](CCCNC(=N)N)C(=O)N2CC[C@@H](C)C[C@@H]2C(=O)O)C1 (stereo partly shown) [Argatroban]
- Inhibition of fibrin formation compared to bare metal control stents (porcine coronary artery; 7 days): not more effective
- ACT [2]: 301

Molecule: O=C(NC[C@H]1CN(c2ccc(N3CCOCC3=O)cc2)C(=O)O1)c1ccc(Cl)s1 [Rivaroxaban]
- Inhibition of fibrin formation compared to bare metal control stents (porcine coronary artery; 7 days): more effective
- Inhibition of fibrin formation compared to control (porcine coronary artery; Example 3, fast release formulation, 7 days and/or 28 days): more effective
- Rivaroxaban amount released from stent ([3]; Example 3 stent, in combination with m-TOR inhibitor formulation, within 7 days): about 68.1 µg
- Percent of rivaroxaban released from stent [3, 4]: about 92.5%
- Rivaroxaban dose released from stent [3, 4]: about 92.5 µg
- Cumulative Percent Release of drug by day 7, Rivaroxaban ([3]; Rivaroxaban/Argatroban combination stent): about 70.9%
- Cumulative Percent Release of drug by day 7 ([3]; single-drug stent): about 99.5%

Molecule: Dalteparin
- Inhibition of fibrin formation compared to bare metal control stents (porcine coronary artery; 7 days): not more effective
- Inhibition of smooth muscle cell proliferation (LLL) compared to bare metal control stents (porcine coronary artery; 7 days): not more effective
